Data published in US20250263370A1 (Tay Therapeutics Limited, priority 2022, published 2025).
“And” between values parts separate entries of the source, which are not always exact repeats. Equal entries are not always repeated.

System: collagen-induced arthritis
Experiment: Collagen-induced arthritis (CIA) model in rats: body weight, paw volume, clinical scores, clinical observations; as to Average detailed clinical score, left hind limb: key of the grades not given here; as to Average detailed clinical score, right hind limb: key of the grades not given here; as to Detailed Clinical Scores, left forelimb: key of the grades not given here; as to Detailed Clinical Scores, left hind limb: key of the grades not given here; as to Detailed Clinical Scores, right forelimb: key of the grades not given here; as to Detailed Clinical Scores, right hind limb: key of the grades not given here; as to Detailed Clinical Scores, score: key of the grades not given here; as to Detailed Clinical Scores: left forelimb: key of the grades not given here; as to Detailed Clinical Scores: left hind limb: key of the grades not given here; as to Detailed Clinical Scores: right forelimb: key of the grades not given here; as to Detailed Clinical Scores: right hind limb: key of the grades not given here; as to Detailed Clinical Scores: score: key of the grades not given here; as to Mean overall clinical score ± SD: key of the grades not given here; as to overall clinical score: key of the grades not given here
Settings: for Average detailed clinical score, left forelimb / Average detailed clinical score, left hind limb / Average detailed clinical score, right forelimb / Average detailed clinical score, right hind limb / Average detailed clinical score, score / Mean overall clinical score ± SD / Detailed Clinical Scores, left forelimb / Detailed Clinical Scores, left hind limb / Detailed Clinical Scores, right forelimb / Detailed Clinical Scores, right hind limb / Detailed Clinical Scores, score / Overall clinical score / Detailed Clinical Scores: left forelimb / Detailed Clinical Scores: left hind limb / Detailed Clinical Scores: right forelimb / Detailed Clinical Scores: right hind limb / Detailed Clinical Scores: score: CIA rats; for Detailed Clinical Scores, left forelimb / Detailed Clinical Scores, left hind limb / Detailed Clinical Scores, right forelimb / Detailed Clinical Scores, right hind limb / Detailed Clinical Scores, score / Detailed Clinical Scores: left forelimb / Detailed Clinical Scores: left hind limb / Detailed Clinical Scores: right forelimb / Detailed Clinical Scores: right hind limb / Detailed Clinical Scores: score: individual animals ID 1-8; for Overall clinical score: individual animals #1-8; for Mean animal paw volume ± SD: group mean; for Animal paw volume percent change: individual animals

C[C@@H]1C[C@H]2[C@@H]3CCC4=CC(=O)C=C[C@]4(C)[C@@]3(F)[C@@H](O)C[C@]2(C)[C@@]1(O)C(=O)CO [dexamethasone]
Average detailed clinical score, left forelimb (Day 13): 0.00 | Average detailed clinical score, left hind limb (Day 13): 0.00 | Average detailed clinical score, right forelimb (Day 13): 0.00 | Average detailed clinical score, right hind limb (Day 13): 0.00 | Average detailed clinical score, score (Day 13): 0.00 | Mean overall clinical score ± SD (Day 13): 0 ± 0 | Detailed Clinical Scores, left forelimb (Day 13): 0 | Detailed Clinical Scores, left hind limb (Day 13): 0 | Detailed Clinical Scores, right forelimb (Day 13): 0 | Detailed Clinical Scores, right hind limb (Day 13): 0 | Detailed Clinical Scores, score (Day 13): 0 | Overall clinical score (Day 13): 0 | Mean animal paw volume ± SD (Day 14, L paw): 1.27 mL | Animal paw volume percent change (Day 14, L paw): −8.18% and −5.36% and 0.00% and −4.53% and −1.54% and −5.00% and −3.75% and −8.46% | Mean animal paw volume ± SD (Day 14, R paw): 1.26 mL | Animal paw volume percent change (Day 14, R paw): −5.62% and −2.70% and 0.00% and −8.92% and −2.33% and −7.72% and −5.17% and −8.06% | Average detailed clinical score, left forelimb (Day 14): 0.00 | Average detailed clinical score, left hind limb (Day 14): 0.00 | Average detailed clinical score, right forelimb (Day 14): 0.00 | Average detailed clinical score, right hind limb (Day 14): 0.00 | Average detailed clinical score, score (Day 14): 0.00 | Mean overall clinical score ± SD (Day 14): 0 ± 0 | Detailed Clinical Scores, left forelimb (Day 14): 0 | Detailed Clinical Scores, left hind limb (Day 14): 0 | Detailed Clinical Scores, right forelimb (Day 14): 0 | Detailed Clinical Scores, right hind limb (Day 14): 0 | Detailed Clinical Scores, score (Day 14): 0 | Overall clinical score (Day 14): 0 | Mean animal paw volume ± SD (Day 15, L paw): 1.26 mL | Animal paw volume percent change (Day 15, L paw): −8.92% and −7.28% and −2.17% | Mean animal paw volume ± SD (Day 15, R paw): 1.26 mL | Animal paw volume percent change (Day 15, R paw): −6.74% and −4.25% and −1.45% | Average detailed clinical score, left forelimb (Day 15): 0.00 | Average detailed clinical score, left hind limb (Day 15): 0.00 | Average detailed clinical score, right forelimb (Day 15): 0.00 | Average detailed clinical score, right hind limb (Day 15): 0.00 | Average detailed clinical score, score (Day 15): 0.00 | Mean overall clinical score ± SD (Day 15): 0 ± 0 | Detailed Clinical Scores: left forelimb (Day 15): 0 | Detailed Clinical Scores: left hind limb (Day 15): 0 | Detailed Clinical Scores: right forelimb (Day 15): 0 | Detailed Clinical Scores: right hind limb (Day 15): 0 | Detailed Clinical Scores: score (Day 15): 0 | Overall clinical score (Day 15): 0 | Mean animal paw volume ± SD (Day 18, L paw): 1.29 mL | Animal paw volume percent change (Day 18, L paw): −5.20% and −6.51% and 4.33% | Mean animal paw volume ± SD (Day 18, R paw): 1.29 mL | Animal paw volume percent change (Day 18, R paw): −4.49% and −4.63% and 4.36% | Average detailed clinical score, left forelimb (Day 18): 0.00 | Average detailed clinical score, left hind limb (Day 18): 0.00 | Average detailed clinical score, right forelimb (Day 18): 0.00 | Average detailed clinical score, right hind limb (Day 18): 0.00 | Average detailed clinical score, score (Day 18): 0.00 | Mean overall clinical score ± SD (Day 18): 0 ± 0 | Detailed Clinical Scores: left forelimb (Day 18): 0 | Detailed Clinical Scores: left hind limb (Day 18): 0 | Detailed Clinical Scores: right forelimb (Day 18): 0 | Detailed Clinical Scores: right hind limb (Day 18): 0 | Detailed Clinical Scores: score (Day 18): 0 | Overall clinical score (Day 18): 0 | Mean animal paw volume ± SD (Day 19, L paw): 1.29 mL | Animal paw volume percent change (Day 19, L paw): −5.20% and −6.90% | Mean animal paw volume ± SD (Day 19, R paw): 1.28 mL | Animal paw volume percent change (Day 19, R paw): −5.24% and −6.18% | Average detailed clinical score, left forelimb (Day 19): 0.00 | Average detailed clinical score, left hind limb (Day 19): 0.00 | Average detailed clinical score, right forelimb (Day 19): 0.00 | Average detailed clinical score, right hind limb (Day 19): 0.00 | Average detailed clinical score, score (Day 19): 0.00 | Mean overall clinical score ± SD (Day 19): 0 ± 0 | Detailed Clinical Scores: left forelimb (Day 19): 0 | Detailed Clinical Scores: left hind limb (Day 19): 0 | Detailed Clinical Scores: right forelimb (Day 19): 0 | Detailed Clinical Scores: right hind limb (Day 19): 0 | Detailed Clinical Scores: score (Day 19): 0 | Overall clinical score (Day 19): 0 | Mean animal paw volume ± SD (Day 21, L paw): 1.28 mL | Animal paw volume percent change (Day 21, L paw): −6.32% and −6.90% | Mean animal paw volume ± SD (Day 21, R paw): 1.29 mL | Animal paw volume percent change (Day 21, R paw): −5.99% and −6.18% | Average detailed clinical score, left forelimb (Day 21): 0.00 | Average detailed clinical score, left hind limb (Day 21): 0.00 | Average detailed clinical score, right forelimb (Day 21): 0.00 | Average detailed clinical score, right hind limb (Day 21): 0.00 | Average detailed clinical score, score (Day 21): 0.00 | Mean overall clinical score ± SD (Day 21): 0 ± 0 | Detailed Clinical Scores: left forelimb (Day 21): 0 | Detailed Clinical Scores: left hind limb (Day 21): 0 | Detailed Clinical Scores: right forelimb (Day 21): 0 | Detailed Clinical Scores: right hind limb (Day 21): 0 | Detailed Clinical Scores: score (Day 21): 0 | Overall clinical score (Day 21): 0
